Patent US7951548B2, “IL-13 production inhibitor” (Takeda Pharmaceutical Company Limited, priority 2005, dated 2011)

Key:
Format in all cases: cell-based
GPR34 [1] = target: T1, GPR34 (Homo sapiens, UniProt Q9UPC5); assay: MAPK activation: phosphorylation of ERK1/2 in human GPR34-expressed CHO cells (western blotting); conditions: human GPR34-expressed CHO cells
T1 construct: expressed in transfected cells
Procedure: The cells were prepared as described below. Human GPR34-expressed CHO cells were scraped off with 0.05% trypsin-EDTA (GIBCO) and suspended in a medium (MEM-α (GIBCO), supplemented with 10% FBS (GIBCO) and penicillin/streptomycin (BIOWHITTAKER)). After centrifugation, the cells precipitated were suspended in the medium in 2×10^5 cells/ml and a 1 mL aliquot was plated on a 35 mm cell culture dish. After incubation overnight in a CO2 incubator, the medium was aspirated and washed in PBS. Then 1 mL of serum-free medium (MEM-α (GIBCO), supplemented with penicillin/streptomycin (BIOWHITTAKER)) and incubation was performed in a CO2 incubator. Pertussis toxin (hereinafter PTX) was added in a final concentration of 0.1 μg/mL 20 hours before the assay.
The cells were activated as follows. The medium was aspirated and washed in PBS. Thereafter, 500 μL of assay buffer (HBSS (GIBCO), 10 mM HEPES (Dojin Chemical Laboratory)) was added to perform preincubation for 15 minutes at 37° C. The lysoPS solution and […] of PECGF ([…] cell growth factor) solution as a positive control were added. After the mixture was incubated at 37° C., the reaction was terminated by quenching. The assay buffer was aspirated and washed in PBS. Then, 1×SDS sample buffer/DTT was added to the cells to recover the cells. After ultrasonication for 15 seconds, heating at 95° C. for 5 minutes was followed by quenching.
Detection by SDS-PAGE and western blotting were performed as follows. After separation using 10% Bis-Tris gel (Invitrogen), the gel was transferred to Immuno-Blot PVDF Membrane (Bio-Rad). The membrane was blocked with Block Ace (Dai-Nippon Pharmaceutical) and incubated at room temperature for an hour with a primary antibody (Phospho-p42/p44 MAP Kinase (Thr202/Thr204) Antibody (CST) or p42/p44 MAP Kinase Antibody (CST)) and further incubated at room temperature for an hour using a secondary antibody (Anti-rabbit IgG (CST)). The membrane after the antibody reaction was visualized by chemiluminescence using ECL PLUS (Amersham Biosciences). […]

GPR34 [2] = target: T1, GPR34; assay: DNA synthesis activity (tritium-labeled thymidine) of human GPR34-expressed CHO cells; conditions: serum-free medium, 16 hours
Procedure: The human GPR34-expressed CHO cells prepared by the procedure as described in REFERENCE EXAMPLE 1 were plated at a cell density of 20,000 cells/well on a 96-well plate charged with serum-free medium. The cells were allowed to stand for 4 hours, 0, 0.1, 0.3, 1 and 3 μM lysoPS was added thereto, respectively, followed by incubation for 16 hours. After 1 μCi/well of tritium-labeled thymidine (Amersham, TRK120) was added to achieve labeling for 4 hours, fixation was performed in 10% trichloroacetic acid. Solubilization in an aqueous sodium hydroxide solution was followed by neutralization in trichloroacetic acid to collect DNA with a cell harvester. The radioactivity on the filter was taken as DNA synthesis activity.

[3] = system: rat peritoneal mast cells; assay: Degranulation of rat peritoneal mast cells (β-hexosaminidase activity in supernatant); conditions: for degranulation: 20 minutes
Procedure: The rat peritoneal mast cells (RPMC) obtained by the procedure described in EXAMPLE 1 were subjected to passive sensitization for 30 minutes on ice using DNP IgE (Yamasa, 10 μg/ml), washed and plated on a 96-well plate in a final cell concentration of 100,000 cells/well in the reaction solution. RPMC was stimulated by lysoPS and DNP-BSA (Carbiochem) and the plate was centrifuged 20 minutes after. The β-hexosaminidase activity in the supernatant of the reaction solution was assayed using the degradation activity of 4-methylumbeliferryl-2-acetamido-2-deoxy-β-D-glucopyranoside (Wako Pure Chemicals) as an indicator.

[4] = system: rat primary culture microglial cells (PMGC); assay: Changes of intracellular calcium levels in rat primary culture microglial cells (FLIPR); conditions: 0.2 to 10 μM lysoPS
Procedure: The reactivity of rat primary culture microglial cells (PMGC) with lysoPS was examined using FLIPR. PMGC was incubated in DMEM (Invitrogen) supplemented with 10% calf fetal serum (Invitrogen), unless otherwise indicated. PMGC, which was prepared from the brain of rat of one day old one day before assay, was plated on a Black walled 96-well plate (Costar) at 5.0×10^4 cells/well, and incubated overnight at 37° C. in a CO2 incubator adjusted to 5% CO2. After lysoPS was added to the PMGC, changes of intracellular calcium levels in this case were assayed using FLIPR (Molecular Device). To assay the changes of intracellular calcium levels on FLIPR, the following pretreatment was performed. First, an assay buffer was prepared to incorporate fluorescent dye Fluo-3AM (DOJIN) in the cells or wash the cells immediately before the FLIPR assay. To a solution of 20 ml of 1M HEPES (pH 7.4) (DOJIN) to 1000 ml of HBSS (Invitrogen) (hereinafter, HBSS/HEPES solution), 10 ml of the solution mixture obtained by dissolving 710 mg of Probenecid (Sigma) in 5 ml of 1N NaOH and further adding 5 ml of the HBSS/HEPES solution thereto was added. The resulting solution was used as an assay buffer. Next, 50 μg of Fluo-3AM was dissolved in 21 μl of DMSO (DOJIN) and an equal volume of 20% Pluronic acid (Molecular Device) was further mixed therewith. […]

T1 sequence (Q9UPC5 whole entry): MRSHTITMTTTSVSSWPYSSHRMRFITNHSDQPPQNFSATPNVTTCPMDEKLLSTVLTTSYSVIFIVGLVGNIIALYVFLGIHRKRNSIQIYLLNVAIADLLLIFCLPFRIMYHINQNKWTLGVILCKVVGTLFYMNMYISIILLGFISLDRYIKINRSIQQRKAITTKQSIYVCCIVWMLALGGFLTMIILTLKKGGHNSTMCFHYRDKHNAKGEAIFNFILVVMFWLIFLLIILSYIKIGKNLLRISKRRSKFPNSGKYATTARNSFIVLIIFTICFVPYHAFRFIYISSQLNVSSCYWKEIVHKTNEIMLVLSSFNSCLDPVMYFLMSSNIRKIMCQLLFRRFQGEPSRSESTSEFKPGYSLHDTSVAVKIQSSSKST

In the case of lysophosphatidylserine [lysoPS], the “phosphorylation of ERK1/2 30 minutes after the stimulation” value (GPR34 [1]) is reported as “the phosphorylation was noted”, the “time of maximum response of ERK1/2 phosphorylation after the stimulation” value (GPR34 [1]) is reported as “about 5 minutes” and the “DNA synthesis activity, increase” value (GPR34 [2]; 0.1 μM lysoPS) is reported as 1.1 times. The “DNA synthesis activity, increase” value (GPR34 [2]; 0.3 μM lysoPS) was 1.2 times, the “DNA synthesis activity, increase” value (GPR34 [2]; 1 μM lysoPS) was 2.0 times and the “DNA synthesis activity, increase” value (GPR34 [2]; 3 μM lysoPS) was 3.2 times. For the same substance, the degranulation ([3]; 100 ng/ml DNP-BSA with 0.1 μM lysoPS added simultaneously) was 8.4%, the degranulation ([3]; 100 ng/ml DNP-BSA with 0.3 μM lysoPS added simultaneously) was 14.7% and the degranulation ([3]; 100 ng/ml DNP-BSA with 1 μM lysoPS added simultaneously) was 26.0%. The degranulation ([3]; 100 ng/ml DNP-BSA with 3 μM lysoPS added simultaneously) was 36.7%, the degranulation ([3]; 100 ng/ml DNP-BSA with 10 μM lysoPS added simultaneously) was 45.2% and the “degranulation (in words)” value ([3]; 0.1 to 10 μM lysoPS with 100 ng/ml DNP-BSA) was “increased concentration-dependently”. For the same substance, the “increase in intracellular calcium levels” value [4] was “responded concentration-dependently”.
